One test has as its system blood glucose. The experiment in a line: Hypoglycaemic activity: reduction in area under blood glucose curve after glucose load. In kind it is in vivo, Female CFLP mice. The settings on record: Mus musculus, read-out: % Reduction in area under Blood Glucose Curve. On the procedure: Female CFLP mice, weighing approximately 25 g, were fasted for 24 hours prior to the study. The compounds under study were administered orally as an aqueous solution to each of 6 mice. 30 minutes later a blood sample (10 μl) was obtained from the tail for the analysis of blood glucose. Immediately after taking this blood sample, glucose (1 g/Kg body weight) was administered subcutaneously to each mouse. 6 mice were given water as a control. Blood samples were then obtained from each mouse at 30 minute intervals for 120 minutes.
Compounds that produced a significant (P<0.05) reduction of blood glucose, compared with control mice given water, at any time interval, were considered active. The area under the blood glucose curve over the 2 hour period after the administration of the glucose was calculated for each compound and compared with the value for control animals.

A short description of test [1]: Effect on energy expenditure of mice. Format: in vivo, Female CFLP mice. As to conditions: Mus musculus. On the procedure: Female CFLP mice, each weighing approximately 24 g were given food and water ad lib before and during the experiment. The compounds were dissolved in water by addition of one mole of hydrochloric acid per mole of compound and these solutions were administered orally to each of 12 mice. A further 12 mice were dosed orally with water. The mice were placed in boxes through which air was drawn and the oxygen content of the air leaving the boxes was measured. The energy expenditure of the mice was calculated for 21 hours after dosing from the volume of air leaving the boxes and its oxygen content, following the principles described by J. B. de V. Weir, J. Physiol. (London), 109, 1-9 (1949).

Where [2] appears, read: 2.5 μmol/Kg oral, 2 h after glucose 1 g/Kg s.c., vs control.
Where [3] appears, read: po, 3 h, read-out: Mean Energy Expenditure (0-3 h).
Setting [4] is: po, 21 h, read-out: Mean Energy Expenditure (0-21 h).
Where [5] appears, read: 12.5 μmol/Kg oral, 2 h after glucose 1 g/Kg s.c., vs control.
Setting [6] is: 25.1 mg/kg po, 0-3 h, read-out: Mean Energy Expenditure (0-3 h).

Where a name gives a salt, the structure may show the parent alone. Read-outs that look alike come from different tables or passages of the source.

With `CNCCOc1ccc(CC(C)NCC(OC)c2cccc(Cl)c2)cc1` (stereo not drawn) [Example 9, N-[2-(4-Methylaminoethoxy)phenyl)-1-methylethyl]-2-methoxy-2-(3-chlorophenyl)ethanamine dihydrochloride], in the test with blood glucose (setting [2]), the inhibition in vivo at 2.5 µmol/kg worked out at 31%. The response vs control in vivo at 22.4 mg/kg was determined as 168% in test [1] (setting [3]) and 151% in test [1] (22.4 mg/kg po, 0-21 h, read-out: Mean Energy Expenditure (0-21 h)).

Regarding `COC(=O)COc1ccc(CC(C)NCC(OC)c2ccccc2)cc1` (stereo not drawn) [Example 10, N-[2-(4-Carbomethoxymethoxyphenyl)-1-methylethyl]-2-methoxy-2-phenylethanamine hydrochloride monohydrate], the inhibition in vivo at 1 µmol/kg in the test with blood glucose (po, 2 h) amounted to 24%. Besides, the response vs control in vivo at 20.6 mg/kg in test [1] (setting [3]) came out at 135%; in test [1] (setting [4]), 114%.

For the compound `CNC(=O)COc1ccc(CC(C)NCC(OC)c2ccccc2)cc1` (stereo not drawn) [Example 11, N-[2-(4-Methylaminocarbonylmethoxyphenyl)-1-methylethyl]-2-methoxy-2-phenylethanamine hydrochloride], the inhibition in vivo at 1 µmol/kg with blood glucose (po, 2 h) stood at 42%. Besides, the response vs control in vivo at 19.6 mg/kg in test [1] (setting [3]) came to 139%; in test [1] (setting [4]), 118%.

In the case of `COC(=O)COc1ccc(CC(C)NCC(OC)c2cccc(Br)c2)cc1` (stereo not drawn) [Example 12, N-[2-(4-Carbomethoxymethoxyphenyl)-1-methylethyl]-2-methoxy-2-(3-bromophenyl)ethanamine hydrochloride], the inhibition in vivo at 1 µmol/kg in the test on blood glucose (po, 2 h) came out at 51%. For the same compound, the response vs control in vivo at 23.6 mg/kg in test [1] (setting [3]) came to 130%; in test [1] (setting [4]) it was 123%.

Take `CNCCOc1ccc(CC(C)NCC(OC)c2ccccc2)cc1` (stereo not drawn) [Example 13, N-[2-(4-(2-Methylaminoethoxy)phenyl)-1-methylethyl]-2-methoxy-2-phenylethanamine dihydrochloride]: the inhibition in vivo at 2.5 µmol/kg in the test with blood glucose (po, 2 h) is 21%. Moreover, the values for the response vs control in vivo at 20.8 mg/kg in test [1] (setting [3]) and in test [1] (setting [4]) were 145% and 118%, respectively.

For `CNC(=O)COc1ccc(CC(C)NCC(OC)c2cccc(Br)c2)cc1` (stereo not drawn) [Example 15, N-[2-(4-Methylaminocarbonylmethoxyphenyl)-1-methylethyl]-2-methoxy-2-(3-bromophenyl)ethanamine hydrochloride], the inhibition in vivo at 0.5 µmol/kg in the test with blood glucose (po, 2 h) came out at 41%. In addition, the values for the response vs control in vivo at 23.6 mg/kg in test [1] (setting [3]) and in test [1] (setting [4]) were 137% and 125%, respectively.

Regarding `CCOC(CNC(C)Cc1ccc(OCC(=O)NC)cc1)c1cccc(Cl)c1` (stereo not drawn) [Example 16, N-[2-(4-Methylaminocarbonylmethoxyphenyl)-1-methylethyl]-2-ethoxy-2-(3-chlorophenyl)ethanamine hydrochloride], the inhibition in vivo at 1 µmol/kg in the test on blood glucose (po, 2 h) came to 49%. Moreover, the figures for the response vs control in vivo at 22.1 mg/kg in test [1] (setting [3]) and in test [1] (setting [4]) were 140% and 126%, respectively.

With `CNCCOc1ccc(CC(C)NCC(OC)c2cccc(Br)c2)cc1` (stereo not drawn) [Example 17, N-[2-(4-Methylaminoethoxy)phenyl)-1-methylethyl]-2-methoxy-2-(3-bromophenyl)ethanamine dihydrochloride], the inhibition in vivo at 2.5 µmol/kg with blood glucose (setting [2]) amounted to 25%. Besides, the results for the response vs control in vivo at 24.7 mg/kg in test [1] (setting [3]) and in test [1] (setting [4]) were 142% and 130%, respectively.

Consider `CCOC(CNC(C)Cc1ccc(OCCNC)cc1)c1cccc(Cl)c1` (stereo not drawn) [Example 18, N-[2-(4-(2-Methylaminoethoxy)phenyl)-1-methylethyl]-2-ethoxy-2-(3-chlorophenyl)ethanamine dihydrochloride], for which the inhibition in vivo at 12.5 µmol/kg with blood glucose (po, 2 h) is 47.5%. For the same compound, the response vs control in vivo at 23.2 mg/kg was found to be 115% in test [1] (setting [3]) and 123% in test [1] (setting [4]).

Take `COC(CNC(C)Cc1ccc(OCC(=O)N(C)C)cc1)c1cccc(Cl)c1` (stereo not drawn) [Example 19, N-[2-(4-Dimethylaminocarbonylmethoxyphenyl)-1-methylethyl]-2-methoxy-2-(3-chlorophenyl)ethanamine hydrochloride]: the inhibition in vivo at 1 µmol/kg in the test with blood glucose (po, 2 h) turned out to be 56%. The response vs control in vivo at 22.1 mg/kg in test [1] (setting [3]) amounted to 143%; in test [1] (setting [4]), 139%.

Regarding `COC(CNC(C)Cc1ccc(OCCO)cc1)c1ccccc1` (stereo not drawn) [Example 21, N-[2-(4-(2-Hydroxyethoxy)phenyl)-1-methylethyl]-2-methoxy-2-phenylethanamine hydrochloride hemihydrate], in the test on blood glucose (1.0 μmol/Kg oral, 2 h after glucose 1 g/Kg s.c., vs control), the inhibition in vivo at 1 µmol/kg is 48%. For the same compound, the response vs control in vivo at 18.8 mg/kg in test [1] (setting [4]) was found to be 120%; in test [1] (18.8 mg/kg po, 0-3 h, read-out: Mean Energy Expenditure (0-3 h)), 147%.

For `CNC(=O)COc1ccc(CCC(C)NCC(OC)c2cccc(Cl)c2)cc1` (stereo not drawn) [Example 22, N-[3-(4-Methylaminocarbonylmethoxyphenyl)-1-methylpropyl]-2-methoxy-2-(3-chlorophenyl)ethanamine hydrochloride], the inhibition in vivo at 25 µmol/kg with blood glucose (25 μmol/Kg oral, 2 h after glucose 1 g/Kg s.c., vs control) worked out at 39%. The response vs control in vivo at 22.1 mg/kg was found to be 126% in test [1] (22.1 mg/kg po, 0-3 h, read-out: Mean Energy Expenditure (0-3 h)) and 107% in test [1] (22.1 mg/kg po, 0-21 h, read-out: Mean Energy Expenditure (0-21 h)).

Regarding `COC(CNC(C)Cc1ccc(OCCN(C)C)cc1)c1cccc(Cl)c1` (stereo not drawn) [Example 23, N-[2-(4-(2-Dimethylaminoethoxy)phenyl)-1-methylethyl]-2-methoxy-2-(3-chlorophenyl)ethanamine dihydrochloride hemihydrate], the inhibition in vivo at 2.5 µmol/kg in the test with blood glucose (setting [2]) worked out at 35%. Further, the response vs control in vivo at 23.7 mg/kg in test [1] (setting [4]) came out at 130%; in test [1] (23.7 mg/kg po, 0-3 h, read-out: Mean Energy Expenditure (0-3 h)), 163%.

In the case of `COC(CNC(C)Cc1ccc(OCCN)cc1)c1cccc(Cl)c1` (stereo not drawn) [Example 24, N-[2-(4-(2-Aminoethoxy)phenyl)-1-methylethyl]-2-methoxy-2-(3-chlorophenyl)ethanamine dihydrochloride hemihydrate], in the test on blood glucose (setting [5]), the inhibition in vivo at 12.5 µmol/kg came to 51%. Further, the response vs control in vivo at 22.3 mg/kg in test [1] (setting [4]) was 128%; in test [1] (22.3 mg/kg po, 0-3 h, read-out: Mean Energy Expenditure (0-3 h)) it was 147%.

Turning to `CCCOC(CNC(C)Cc1ccc(OCC(=O)OC)cc1)c1cccc(Cl)c1` (stereo not drawn) [Example 25, N-[2-(4-Carbomethoxymethoxyphenyl)-1-methylethyl]-2-^n-propoxy-2-(3-chlorophenyl)ethanamine hydrochloride], the inhibition in vivo at 12.5 µmol/kg in the test on blood glucose (setting [5]) was determined as 53.5%. The response vs control in vivo at 22.8 mg/kg in test [1] (22.8 mg/kg po, 0-3 h, read-out: Mean Energy Expenditure (0-3 h)) was found to be 137%; in test [1] (22.8 mg/kg po, 0-21 h, read-out: Mean Energy Expenditure (0-21 h)), 105%.

In the case of `COC(=O)COc1ccc(CC(C)NCC(OC(C)C)c2cccc(Cl)c2)cc1` (stereo not drawn) [Example 26, N-[2-(4-Carbomethoxymethoxyphenyl)-1-methylethyl]-2-isopropoxy-2-(3-chlorophenyl)ethanamine hydrochloride], the inhibition in vivo at 2.5 µmol/kg in the test with blood glucose (po, 2 h) came to 45%. Besides, the figures for the response vs control in vivo at 22.8 mg/kg in test [1] (setting [3]) and in test [1] (setting [4]) were 122% and 103%, respectively.

Consider `CCCOC(CNC(C)Cc1ccc(OCC(=O)NC)cc1)c1cccc(Cl)c1` (stereo not drawn) [Example 27, N-[2-(4-Methylaminocarbonylmethoxyphenyl)-1-methylethyl]-2-^n propoxy-2-(3-chlorophenyl)ethanamine dihydrochloride hemihydrate], for which, in the test with blood glucose (setting [2]), the inhibition in vivo at 2.5 µmol/kg stood at 52%. Further, the response vs control in vivo at 25.1 mg/kg was 115% in test [1] (setting [4]) and 143% in test [1] (setting [6]).

Take `CNC(=O)COc1ccc(CC(C)NCC(OC(C)C)c2cccc(Cl)c2)cc1` (stereo not drawn) [Example 28, N-[2-(4-Methylaminocarbonylmethoxyphenyl)-1-methylethyl]-2-isopropoxy-2-(3-chlorophenyl)ethanamine dihydrochloride hemihydrate]: the inhibition in vivo at 2.5 µmol/kg with blood glucose (setting [2]) was 55%. Moreover, the response vs control in vivo at 25.1 mg/kg was 132% in test [1] (setting [6]) and 113% in test [1] (25.1 mg/kg po, 0-21 h, read-out: Mean Energy Expenditure (0-21 h)).

Consider `CNC(=O)c1ccc(CC(C)NCC(OC)c2cccc(Cl)c2)cc1` (stereo not drawn) [Example 30, N-[2-(4-N'-Methylcarboxamidophenyl)-1-methylethyl]-2-methoxy-2-(3-chlorophenyl)ethanamine hydrochloride], for which the inhibition in vivo at 12.5 µmol/kg with blood glucose (setting [5]) was 26.5%. The response vs control in vivo at 19.9 mg/kg in test [1] (setting [4]) came out at 115%; in test [1] (19.9 mg/kg po, 0-3 h, read-out: Mean Energy Expenditure (0-3 h)), 119%.

The values are drawn from patent publication US4629737A, “Secondary amines and use in pharmaceutical compositions” (Beecham Group p.l.c., priority 1982, dated 1986).
